Results reported in PubChem BioAssay (NCI).
Several values for one entry are separate records, joined by “and”; a condition that tells them apart may be missing. Equal entries are not always repeated.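 Cells were grown in 96-well plates and exposed to each compound for 48 hours at five concentrations; endpoints were interpolated linearly between bracketing concentrations, or set to the highest concentration if not reached. GI50: concentration for 50% inhibition of growth. At the TGI there is no net growth.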

What was measured:
Test in all cases: NCI-60 cell line screen, 48 h
HS 578T breast = tested on: HS 578T breast
IGROV1 ovarian = tested on: IGROV1 ovarian
LOX IMVI melanoma = tested on: LOX IMVI melanoma
NCI-H226 lung = tested on: NCI-H226 lung
OVCAR-8 ovarian = tested on: OVCAR-8 ovarian
RXF 393 renal = tested on: RXF 393 renal
SF-268 CNS = tested on: SF-268 CNS
SK-MEL-5 melanoma = tested on: SK-MEL-5 melanoma
SK-OV-3 ovarian = tested on: SK-OV-3 ovarian
SW-620 colon = tested on: SW-620 colon

Row | SMILES | GI50 (HS 578T breast) | TGI (HS 578T breast) | GI50 (IGROV1 ovarian) | TGI (IGROV1 ovarian) | GI50 (LOX IMVI melanoma) | TGI (LOX IMVI melanoma) | GI50 (NCI-H226 lung) | TGI (NCI-H226 lung) | GI50 (OVCAR-8 ovarian) | TGI (OVCAR-8 ovarian) | GI50 (RXF 393 renal) | TGI (RXF 393 renal) | GI50 (SF-268 CNS) | TGI (SF-268 CNS) | GI50 (SK-MEL-5 melanoma) | TGI (SK-MEL-5 melanoma) | GI50 (SK-OV-3 ovarian) | TGI (SK-OV-3 ovarian) | GI50 (SW-620 colon) | TGI (SW-620 colon)
1 | O=C=Nc1ccc(Cc2ccc(N=C=O)cc2)cc1 (tested in a mixture with another compound) | > 25 µg/mL | > 25 µg/mL | > 25 µg/mL | > 25 µg/mL | > 25 µg/mL | > 25 µg/mL | > 25 µg/mL | > 25 µg/mL | > 25 µg/mL | > 25 µg/mL | > 25 µg/mL | > 25 µg/mL | > 25 µg/mL | > 25 µg/mL | > 25 µg/mL | > 25 µg/mL | > 25 µg/mL | > 25 µg/mL | > 25 µg/mL | > 25 µg/mL
2 | O=C1Nc2ccccc2SC1C1SC(=S)N(Cc2ccccc2)C1=O (stereo not given) | 5.52 µM | 31.2 µM | 3.37 µM | 16.5 µM | 2.08 µM | 7.78 µM | 17 µM | 35 µM | 23.7 µM | > 88.2 µM | 4.21 µM | > 27.7 µM | 3.37 µM | 11.4 µM | 13.7 µM | 29.3 µM | 22.9 µM | > 100 µM | 2.39 µM | 13.6 µM
3 | CC/C(=C(\c1ccc(O)cc1)c1ccc(OCCNC)cc1)c1ccccc1 | 0.356 µM and 1.34 µM and 1.78 µM | 3.42 µM and 3.32 µM and 5.18 µM | 1.93 µM and 1.65 µM and 2.38 µM | 4.13 µM and 3.25 µM and 5.4 µM | 1.47 µM and 1.45 µM and 1.73 µM | 2.79 µM and 2.77 µM and 3.22 µM | 9.26 µM and 6.49 µM and 4.33 µM | 28.4 µM and 23.7 µM and 17 µM | 2.6 µM and 2.18 µM and 2.4 µM | 6.66 µM and 5.28 µM and 5.78 µM | 1.5 µM and 1.63 µM and 1.37 µM | 3.68 µM and 3.3 µM and 2.8 µM | 2.25 µM and 1.74 µM and 2.06 µM | 5.24 µM and 3.76 µM and 4.74 µM | 1.77 µM and 1.66 µM and 1.71 µM | 3.17 µM and 3.07 µM | 5.14 µM and 3.69 µM and 2.08 µM | 13.6 µM and 9.3 µM and 5.09 µM | 1.69 µM and 1.75 µM and 1.85 µM | 3.11 µM and 3.26 µM and 3.74 µM
4 | Cc1ccnc2c1NC(=O)c1cccnc1N2C1CC1 | > 100 µM | > 100 µM | > 100 µM | > 100 µM | > 100 µM | > 100 µM | > 100 µM | > 100 µM | > 100 µM | > 100 µM | > 100 µM | > 100 µM | > 100 µM | > 100 µM | > 100 µM | > 100 µM | > 100 µM | > 100 µM | > 100 µM | > 100 µM
5 | CSC(=S)NN=C1CCCCC1 |  | > 100 µM |  | 43.3 µM |  | 53.1 µM |  | 42.4 µM |  | > 100 µM |  | > 100 µM |  | > 100 µM |  | 37.7 µM |  | > 100 µM |  | > 100 µM
6 | NC(N)=NC(N)=NCCc1ccccc1 | > 100 µM | > 100 µM | > 100 µM | > 100 µM | > 100 µM | > 100 µM | > 100 µM | > 100 µM | > 100 µM | > 100 µM | > 100 µM | > 100 µM | > 100 µM | > 100 µM | 87.7 µM and 73.3 µM | > 100 µM | 64.9 µM and > 100 µM | > 100 µM | > 100 µM | > 100 µM
7 | O=C1C(Nc2ccccn2)=C(I)C(=O)c2ncccc21 | 1.2 µM | 4.9 µM | 0.741 µM | 2.25 µM | 0.305 µM | 1.66 µM | 1.43 µM | 3.08 µM | 1.29 µM | 5.87 µM | 1.25 µM | 2.75 µM | 1.34 µM | 3.8 µM | 1.11 µM | 2.31 µM | 1.33 µM | 2.64 µM | 0.33 µM | 1.63 µM
8 | O=C1/C(=C\c2ccccc2)c2ccccc2N1Cc1ccccc1 |  | 20.9 µM |  | 16.5 µM |  | 17 µM |  | 35.6 µM |  | 19 µM |  | 16.1 µM |  | 14.8 µM |  | 15.8 µM |  | 15.8 µM |  | 15.1 µM
9 | c1ccc(-c2cc(-c3cc(-c4ccccn4)[nH]n3)n[nH]2)nc1 |  | > 100 µM |  | > 100 µM |  | > 100 µM |  | > 100 µM |  | > 100 µM |  | > 100 µM |  | > 100 µM |  | > 100 µM |  | > 100 µM |  | > 100 µM
10 | O=C(N/N=C/c1cc2ccccc2c2ccccc12)c1cc(O)c(O)c(O)c1 | 2.67 µM | 8.86 µM | 4.14 µM | 20.5 µM | 2.38 µM | 5.98 µM | 4.47 µM | 28.4 µM | 3.72 µM | 15.6 µM | 2.77 µM | 10.1 µM | 3.74 µM | 14.7 µM | 2.9 µM | 10.6 µM | 4.31 µM | 15.6 µM | 2.96 µM | 12.4 µM
11 | O=c1cccc(C#CCCCCOC2CCCO2)o1 (stereo not given) | 7.46 µM | 29.2 µM | 37.2 µM | > 88.8 µM | 32.6 µM | > 74.5 µM | 17.8 µM | 56.2 µM | 14.2 µM | > 80.7 µM | 6.77 µM | 50.2 µM | 9.14 µM | > 77.6 µM | 7.47 µM | > 16.4 µM | > 30.4 µM | > 54.1 µM | 8.96 µM | > 56.7 µM
